Measured values from patent publication US20230183798A1, “COMPOSITIONS AND METHODS FOR MODIFYING POLYMERASE-NUCLEIC ACID COMPLEXES” (Pacific Biosciences of California, Inc., priority 2020, published 2023).

What was measured:
[1] = test system: polymerase-nucleic acid complexes (ternary complexes); experiment: Stripping nucleotides from ternary complexes: crosstalk metrics after NSB wash in 2x2 examination sequencing; assay type: biochemical; settings: for Capability of stripping nucleotides from ternary complexes while retaining polymerase on primed-template nucleic acid: candidate in NSB; for Overall performance of NSB having candidate vs NSB having isopropanol: vs 20% v/v isopropanol (SOP) NSB; for A_T crosstalk (Cy5-dATP carryover from first exam into second exam) compared to NSB having isopropanol / C_G crosstalk (carryover of C signal from first exam into G channel of second exam) compared to NSB having isopropanol: alternating cycles vs 20% v/v isopropanol (SOP); for Concentration range in NSB found effective: other concentrations tested in addition to Table 1
Description: Template nucleic acid strands synthesized in 12 PCR reactions were prepared, and then independently bound to beads. […] Beads harboring immobilized template strands were then attached to the inner surface of a flow cell. Sequencing was performed for 22 cycles, where each cycle included subroutines for (i) Extension: adding a reversibly terminated nucleotide to primers that were hybridized to the immobilized templates, (ii) Examination: forming and detecting stabilized ternary complexes on the reversibly terminated, immobilized primer-template hybrids, and (iii) Activation: cleaving the reversible terminator from the extended primers.
The Examination subroutine was performed in a 2×2 format as diagrammed in FIG. 1. Specifically, a mixture of Cy5 labelled dATP, Cy7 labelled dCTP, unlabeled dTTP and unlabeled dGTP was delivered to the flow cell that contained polymerase-nucleic acid complexes on the beads, the system paused fluid flow to allow nucleotides to bind at cognate positions of the templates, thereby forming ternary complexes. Free nucleotide was removed from the flow cell by flowing IMG reagent. […] The flow cell was then imaged via fluorescence microscopy to detect ternary complexes that contained a labeled nucleotide that was a cognate for the next correct nucleotide in each of the template nucleic acids. The flow cell was then washed with NSB solutions having various compositions as set forth below. After the NSB wash, a mixture of Cy5 labelled dTTP, Cy7 labelled dGTP, unlabeled dCTP and unlabeled dATP was delivered to the flow cell, and the system paused fluid flow to allow nucleotides to bind, thereby forming ternary complexes. Free nucleotide was removed by flowing IMG reagent and then the flow cell was again imaged.
The concentrations are provided as a percentage in weight of compound per total volume of NSB (w/v) or volume of compound per total volume of NSB (v/v). The concentration can also be expressed as a molar concentration and this can be helpful, for example, as a way to compare the amounts of each compound tested. […] The molar concentrations of 1,5 pentanediol, propylene glycol, hexylene glycol, sulfolane, DMSO, ethyl methyl sulfone and 2-mthoxy ethanol in NSB were similar to the molar concentration of isopropanol in the SOP NSB.
The effectiveness of each candidate compound was determined from the following crosstalk metrics. The A_T crosstalk metric indicates how much Cy5-dATP is carried over from the first exam such that it is detected in the second exam. Similarly, the C_G crosstalk metric indicates how much Cy7-dCTP is carried over from the first exam such that it is detected in the second exam. A lower value for the crosstalk metric indicates less carryover and is correlated with improved sequencing results. On the other hand, a higher value for the crosstalk metric indicates more carryover and lower quality sequencing results.
Results were evaluated as a comparison of crosstalk metrics measured for NSB having 20% v/v/isopropanol (SOP) compared to the crosstalk metric measured for NSB having each of the respective candidate compounds. In all cases, the comparisons were based on data obtained for sequencing runs performed in a single lane of a flow cell. The format of the run was as follows: Cycle_1(SOP)=>Cycle_2(candidate)=>Cycle_3(SOP)=>Cycle_4(candidate) and so on. The crosstalk metric was determined separately for the SOP and candidate cycles, respectively. This format was used to minimize the confounding influence of run-to-run variations when comparing between SOP and each candidate.

[2] = Stability of NSB fluid foam in a flow cell; assay type: physicochemical; settings: 28% 1,6 hexanediol or 20% isopropanol, 55° C., images before and after 1 minute pause in flow
Description: NSB fluid foam having 20% isopropanol (SOP) or 28% 1,6 hexanediol was flowed through a flow cell (40 μl/s flow rate, 300 μl volume, 35 psi positive pressure, 55° C.). The flow was paused and a first image of the foam was acquired immediately. The foam was allowed to sit for 60 seconds and then a second image was taken.

[3] = Flammability
[4] = Solubility of candidate compound in NSB; assay type: physicochemical; settings: NSB solution
[5] = NSB with candidate at Table 1 concentration, lower = less carryover

Row | Compound | Capability of stripping nucleotides from ternary complexes while retaining polymerase on primed-template nucleic acid [1] | Overall performance of NSB having candidate vs NSB having isopropanol [1] | A_T crosstalk (Cy5-dATP carryover from first exam into second exam) compared to NSB having isopropanol [1, 5] | C_G crosstalk (carryover of C signal from first exam into G channel of second exam) compared to NSB having isopropanol [1, 5] | Concentration range in NSB found effective [1] | other results
1 | CC(O)CCO (stereo not drawn) [1,3 butanediol] | capable of stripping nucleotides from ternary complexes while retaining polymerase association with primed-template nucleic acid | did not perform as well as isopropanol |  |  |  | 
2 | OCCCCCO [1,5 pentanediol] |  |  | stronger | stronger |  | A_T crosstalk metric [1, 5]: about 0.16; C_G crosstalk metric [1, 5]: about 0.16
3 | OCCCCCCO [1,6 hexanediol] |  | outperformed NSB having isopropanol | modestly lower | significantly lower | 10-31% | Foam stability [2]: greater foam stability; Flammability [3]: non-flammable
4 | OCCCCCCCO [1,7 heptanediol] |  | outperformed NSB having isopropanol | better | better |  | 
5 | OCCCCCCCCO [1,8 octanediol] |  |  |  |  |  | Solubility in NSB [4]: not immediately soluble
6 | COCCO [2-methoxy ethanol] | can also be useful |  |  |  |  | 
7 | NCCCO [3-Amino-1-propanol] | can also be useful |  |  |  |  | 
8 | C[S+](C)[O-] [DMSO, dimethyl sulfoxide] |  |  | stronger |  | 21-26% | A_T crosstalk metric [1, 5]: below 0.35
9 | CC(C)O [Isopropanol, reference compound] |  |  |  |  | 16-20% | Foam stability [2]: foam can be maintained to some degree
10 | CC(O)CO (stereo not drawn) [Propylene glycol] | capable of stripping nucleotides from ternary complexes while retaining polymerase association with primed-template nucleic acid | did not perform as well as isopropanol |  |  |  | 
11 | CCS(C)(=O)=O [ethyl methyl sulfone] |  |  | stronger |  | 1.4-2.8% | A_T crosstalk metric [1, 5]: below 0.2
12 | O=S1(=O)CCCC1 [sulfolane] |  | outperformed NSB having isopropanol | comparable | better |  | 
13 | hexylene glycol | capable of stripping nucleotides from ternary complexes while retaining polymerase association with primed-template nucleic acid | did not perform as well as isopropanol |  |  |  | 
